The source made the active and inactive calls.
Columns and labels:
[1] = target: Genome polyprotein (dengue virus type 2, UniProt P29990); assay: flavivirus cap methylation enzyme inhibition – biochemical, confirmation dose response, primary screen (AID 588689); type: functional
[2] = target: T1, Corticotropin-releasing factor receptor 2/Corticotropin-releasing factor-binding protein (Homo sapiens, UniProt P24387+Q13324); assay: Dose Response confirmation of uHTS hits for small molecule antagonists of the CRF-binding protein and CRF-R2 receptor complex.; type: functional; conditions: read-out: IC50_Mean
T1 sequence (Q13324 whole entry): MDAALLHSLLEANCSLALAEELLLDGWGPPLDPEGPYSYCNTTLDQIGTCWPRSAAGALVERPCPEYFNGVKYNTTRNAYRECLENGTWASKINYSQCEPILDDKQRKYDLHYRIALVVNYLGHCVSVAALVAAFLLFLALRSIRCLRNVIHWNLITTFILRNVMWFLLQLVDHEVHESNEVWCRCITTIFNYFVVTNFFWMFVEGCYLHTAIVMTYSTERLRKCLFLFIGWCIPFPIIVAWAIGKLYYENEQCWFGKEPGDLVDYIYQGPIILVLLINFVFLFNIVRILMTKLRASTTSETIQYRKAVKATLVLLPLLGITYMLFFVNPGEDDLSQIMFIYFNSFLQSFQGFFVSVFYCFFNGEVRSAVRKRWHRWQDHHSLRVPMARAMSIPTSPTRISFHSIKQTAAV
T1 sequence (P24387 whole entry): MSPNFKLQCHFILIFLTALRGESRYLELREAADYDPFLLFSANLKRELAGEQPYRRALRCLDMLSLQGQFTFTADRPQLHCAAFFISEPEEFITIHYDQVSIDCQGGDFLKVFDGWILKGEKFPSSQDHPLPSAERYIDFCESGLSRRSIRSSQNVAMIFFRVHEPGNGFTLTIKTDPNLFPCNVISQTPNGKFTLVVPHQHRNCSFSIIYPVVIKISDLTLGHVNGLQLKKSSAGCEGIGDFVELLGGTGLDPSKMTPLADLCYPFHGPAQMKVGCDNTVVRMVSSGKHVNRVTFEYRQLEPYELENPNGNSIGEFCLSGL

[3] = target: T1, Corticotropin-releasing factor receptor 2/Corticotropin-releasing factor-binding protein; assay: activators of CRF receptor 2 with binding protein – uHTS hits, confirmation (AID 602473); type: functional; conditions: read-out: EC50_Mean
[4] = target: T2, Small ubiquitin-related modifier 2 (Homo sapiens, UniProt P61956); assay: disruption of SUMO2 interaction with SIM peptide – biochemical, fluorescence polarization, uHTS hits, selectivity assay for SUMO1 interaction inhibitor project, dose response (AID 624385); type: functional; conditions: read-out: IC50_Mean
[5] = target: T3, Small ubiquitin-related modifier 1 (Homo sapiens, UniProt P63165); assay: SUMO1 protein interaction blockers, potency – biochemical, fluorescence polarization, uHTS hits, dose response (AID 624382); type: functional; conditions: read-out: IC50_Mean
[6] = target: T2, Small ubiquitin-related modifier 2; assay: SUMO2 binding disruption by SUMO1 hits – biochemical, FRET, human SUMO2, uHTS hits, selectivity assay for SUMO1 interaction inhibitor project, dose response (AID 624384); type: functional; conditions: read-out: IC50_Mean
[7] = target: T3, Small ubiquitin-related modifier 1; assay: SUMO1 protein-protein binding blockers, potency – biochemical, FRET, dose response (AID 624383); type: functional; conditions: read-out: IC50_Mean
[8] = bead-based luminescence quenchers, dual-tagged ARNT – biochemical, AlphaScreen, cherry-pick, artefact control for ARNT-TACC3 interaction inhibitor project, dose response (AID 651705); type: functional;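 also: AlphaScreen bead proximity signal that flags compounds interfering with the detection technology; potency reflects signal decrease which marks the compound as an assay artifact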
[9] = cells; type: functional
[10] = inhibition of ARNT PAS-B/TACC3 complex formation – biochemical, AlphaScreen, cherry-picked samples, confirmation (AID 651703); type: functional, Homo sapiens;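 also: His-tagged ARNT PAS-B domain paired with GST-TACC3 E629A dimer coactivator fragment; potency of inhibitors that break up the complex and lower AlphaScreen signal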
[11] = target: Beta Lactamase (Pseudomonas aeruginosa, UniProt Q932Y6);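 also: confirmatory high-throughput screen measuring VIM-2 metallo-beta-lactamase inhibition by epi-absorbance in dose response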
[12] = target: Beta-lactamase (Pseudomonas aeruginosa, UniProt Q79MP6);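 also: biochemical dose-response test of metallo-beta-lactamase enzyme inhibition, read out by epi-absorbance; purified recombinant IMP-1 metallo-beta-lactamase with nitrocefin as substrate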
[13] = target: Beta-lactamase (Salmonella choleraesuis (strain SC-B67), UniProt Q5J463)
[14] = target: 26S proteasome non-ATPase regulatory subunit 14 (Homo sapiens, UniProt O00487); assay: inhibition of proteasome subunit RPN11 – biochemical, fluorescence polarization, uHTS hits, confirmation (AID 602368); type: functional
[15] = target: 72 kDa type IV collagenase (Homo sapiens, UniProt P08253); assay: Dose Response validation of uHTS RPN11 inhibitor hits using a MMP-2 Fluorescence assay.; type: functional
[16] = target: Prothrombin (Bos taurus, UniProt P00735); assay: thrombin protease inhibitors – biochemical, fluorescence polarization, uHTS hits, dose response (AID 602369); type: functional
[17] = target: T4, Low molecular weight phosphotyrosine protein phosphatase (Homo sapiens, UniProt P24666); type: functional; conditions: read-out: IC50_Mean
T4 sequence (P24666 whole entry): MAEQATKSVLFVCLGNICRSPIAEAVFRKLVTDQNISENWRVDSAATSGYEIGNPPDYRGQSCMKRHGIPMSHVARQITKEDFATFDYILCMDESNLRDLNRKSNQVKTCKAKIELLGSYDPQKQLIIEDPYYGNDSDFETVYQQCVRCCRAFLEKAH

[18] = target: T4, Low molecular weight phosphotyrosine protein phosphatase; type: functional; conditions: read-out: IC50_Mean; remark: listed apart in the source
[19] = target: Melanocortin receptor 4 (Homo sapiens, UniProt P32245); assay: inhibitors of MC4R cAMP signaling – cell-based, TR-FRET, biased antagonists, dose response (AID 602298); type: functional;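 also: antagonist potency against agonist-stimulated cAMP production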
[20] = cAMP pathway inhibition in counterscreen cell line – TR-FRET cAMP detection, counter-screen for MC4R biased antagonist project, dose response (AID 602305); type: functional, cell-based;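 also: U2OS cells stimulated with forskolin near its EC80 as the cAMP inducer; potency is for inhibition of forskolin-stimulated cAMP signaling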

T2 sequence (P61956 whole entry): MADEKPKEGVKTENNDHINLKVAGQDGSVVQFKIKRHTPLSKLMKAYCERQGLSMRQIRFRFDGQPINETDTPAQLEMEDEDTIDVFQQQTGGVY
T3 sequence (P63165 whole entry): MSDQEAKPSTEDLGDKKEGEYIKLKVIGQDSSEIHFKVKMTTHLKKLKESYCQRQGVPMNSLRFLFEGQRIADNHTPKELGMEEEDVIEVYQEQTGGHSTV
Sequence of Beta-lactamase (Salmonella choleraesuis (strain SC-B67), UniProt Q5J463) (Q5J463 whole entry): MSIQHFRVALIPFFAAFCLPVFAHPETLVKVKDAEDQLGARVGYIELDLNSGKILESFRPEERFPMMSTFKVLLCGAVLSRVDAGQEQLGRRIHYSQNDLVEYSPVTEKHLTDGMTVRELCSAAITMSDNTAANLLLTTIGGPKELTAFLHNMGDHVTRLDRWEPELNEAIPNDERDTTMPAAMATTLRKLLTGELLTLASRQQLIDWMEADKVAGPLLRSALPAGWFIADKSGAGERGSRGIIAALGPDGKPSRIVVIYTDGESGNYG
Sequence of Beta-lactamase (Pseudomonas aeruginosa, UniProt Q79MP6) (Q79MP6 whole entry): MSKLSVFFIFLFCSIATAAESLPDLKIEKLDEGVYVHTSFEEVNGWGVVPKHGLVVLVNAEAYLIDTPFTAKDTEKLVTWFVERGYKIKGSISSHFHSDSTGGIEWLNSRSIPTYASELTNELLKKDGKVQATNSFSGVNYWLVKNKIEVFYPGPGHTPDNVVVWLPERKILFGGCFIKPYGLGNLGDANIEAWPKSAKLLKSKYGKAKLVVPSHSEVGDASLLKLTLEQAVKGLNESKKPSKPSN
Sequence of Beta Lactamase (Q932Y6 whole entry): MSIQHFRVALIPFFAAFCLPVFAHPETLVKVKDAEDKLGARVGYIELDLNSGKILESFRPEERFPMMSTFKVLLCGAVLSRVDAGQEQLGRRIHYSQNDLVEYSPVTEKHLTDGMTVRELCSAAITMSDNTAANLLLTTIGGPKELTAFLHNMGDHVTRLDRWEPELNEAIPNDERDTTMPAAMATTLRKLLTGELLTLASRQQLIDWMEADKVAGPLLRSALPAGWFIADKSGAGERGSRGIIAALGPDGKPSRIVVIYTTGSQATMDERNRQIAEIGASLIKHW
Sequence of Melanocortin receptor 4 (P32245 whole entry): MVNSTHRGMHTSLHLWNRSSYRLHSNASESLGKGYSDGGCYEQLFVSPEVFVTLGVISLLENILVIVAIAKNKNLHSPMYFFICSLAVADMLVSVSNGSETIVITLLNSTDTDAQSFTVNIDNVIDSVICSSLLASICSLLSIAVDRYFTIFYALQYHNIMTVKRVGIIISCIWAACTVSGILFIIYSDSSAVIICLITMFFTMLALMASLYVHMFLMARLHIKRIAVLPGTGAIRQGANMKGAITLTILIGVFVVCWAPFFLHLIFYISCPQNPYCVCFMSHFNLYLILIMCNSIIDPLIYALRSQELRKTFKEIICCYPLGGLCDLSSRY
Sequence of Genome polyprotein (P29990 2492-3391 limits assumed): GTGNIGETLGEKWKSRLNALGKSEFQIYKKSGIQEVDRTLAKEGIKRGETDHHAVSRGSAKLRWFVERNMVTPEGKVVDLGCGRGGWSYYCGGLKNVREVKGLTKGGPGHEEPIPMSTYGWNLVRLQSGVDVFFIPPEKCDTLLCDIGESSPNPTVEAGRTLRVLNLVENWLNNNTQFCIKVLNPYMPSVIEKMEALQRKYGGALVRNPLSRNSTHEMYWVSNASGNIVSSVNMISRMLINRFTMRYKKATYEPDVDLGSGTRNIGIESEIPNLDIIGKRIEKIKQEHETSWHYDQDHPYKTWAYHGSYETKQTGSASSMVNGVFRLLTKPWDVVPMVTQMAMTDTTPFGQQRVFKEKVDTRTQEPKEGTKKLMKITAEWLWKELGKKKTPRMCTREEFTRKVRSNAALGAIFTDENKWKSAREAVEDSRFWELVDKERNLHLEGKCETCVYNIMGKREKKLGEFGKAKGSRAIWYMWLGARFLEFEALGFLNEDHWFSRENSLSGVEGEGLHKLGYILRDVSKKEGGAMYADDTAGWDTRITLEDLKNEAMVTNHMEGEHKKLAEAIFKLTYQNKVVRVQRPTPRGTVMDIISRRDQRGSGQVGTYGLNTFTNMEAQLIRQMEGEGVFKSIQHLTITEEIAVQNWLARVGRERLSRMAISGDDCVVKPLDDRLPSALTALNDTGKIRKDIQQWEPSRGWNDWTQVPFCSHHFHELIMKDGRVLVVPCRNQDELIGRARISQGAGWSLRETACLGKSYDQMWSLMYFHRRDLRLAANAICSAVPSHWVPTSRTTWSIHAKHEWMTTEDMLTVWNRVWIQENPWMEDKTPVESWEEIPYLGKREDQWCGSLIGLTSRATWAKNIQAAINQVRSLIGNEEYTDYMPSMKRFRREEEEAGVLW
Sequence of 26S proteasome non-ATPase regulatory subunit 14 (O00487 whole entry): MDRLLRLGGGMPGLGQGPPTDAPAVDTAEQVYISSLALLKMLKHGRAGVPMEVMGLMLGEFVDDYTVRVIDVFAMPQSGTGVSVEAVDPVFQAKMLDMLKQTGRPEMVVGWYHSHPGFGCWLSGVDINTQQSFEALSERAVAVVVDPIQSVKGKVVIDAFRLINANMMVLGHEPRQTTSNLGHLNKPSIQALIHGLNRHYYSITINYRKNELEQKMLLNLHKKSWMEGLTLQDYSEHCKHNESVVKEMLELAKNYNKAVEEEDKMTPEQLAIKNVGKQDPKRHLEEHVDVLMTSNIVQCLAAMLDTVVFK
Sequence of 72 kDa type IV collagenase (P08253 whole entry): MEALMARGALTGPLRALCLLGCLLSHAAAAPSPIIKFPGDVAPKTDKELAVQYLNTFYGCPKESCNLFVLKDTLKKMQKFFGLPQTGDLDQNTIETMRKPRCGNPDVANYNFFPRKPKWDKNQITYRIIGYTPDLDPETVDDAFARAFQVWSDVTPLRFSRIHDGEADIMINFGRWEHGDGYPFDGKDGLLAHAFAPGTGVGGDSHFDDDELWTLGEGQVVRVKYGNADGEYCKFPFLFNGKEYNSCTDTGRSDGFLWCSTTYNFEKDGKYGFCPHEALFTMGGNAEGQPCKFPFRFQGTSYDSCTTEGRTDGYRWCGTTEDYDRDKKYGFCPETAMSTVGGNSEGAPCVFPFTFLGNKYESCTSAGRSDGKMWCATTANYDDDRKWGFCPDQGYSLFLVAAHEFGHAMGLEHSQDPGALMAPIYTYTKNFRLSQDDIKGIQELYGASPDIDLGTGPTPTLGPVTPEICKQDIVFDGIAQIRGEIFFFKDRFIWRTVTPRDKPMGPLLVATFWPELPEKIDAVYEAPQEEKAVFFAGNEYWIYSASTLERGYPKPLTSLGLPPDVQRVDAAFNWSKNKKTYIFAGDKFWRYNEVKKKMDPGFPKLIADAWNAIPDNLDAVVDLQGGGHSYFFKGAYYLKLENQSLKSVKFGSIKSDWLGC

## O=C(Nc1cc(C(=O)Nc2ccccc2C(=O)O)cc(C(=O)Nc2ccccc2C(=O)O)c1)c1ccccc1
[1]
  IC50: 12.7 µM (active)
[2]
  IC50: > 47.1 µM (inactive)
[3]
  EC50: > 53 µM (inactive)
[4]
  IC50: 4.03 µM (active)
[5]
  IC50: 1.19 µM (active)
[6]
  IC50: 10.7 µM (active)
[7]
  IC50: 7.45 µM (active)

## COc1ccc(CCNC(=O)C23CCC(C)(C(=O)C2Br)C3(C)C)cc1OC (stereo not given)
[8]
  AC50: 129 µM (active)

## Cc1nnc(N/N=C/c2ccc(-c3ccc(Br)cc3)o2)n1N
[9]
  IC50: 9.58 µM (active)
[10]
  AC50: 127 µM (active)

## COc1ccc(C(=O)Nc2ccc(/C(C)=N/NC(=O)c3ccncc3)cc2)cc1
[11]
  IC50: > 59.6 µM (inactive)
[12]
  IC50: 10.9 µM (inactive)
[13]
  IC50: > 59.6 µM (inactive)
[14]
  IC50: 43 µM (active)
[15]
  IC50: > 100 µM (inactive)
[16]
  IC50: > 100 µM (inactive)
[17]
  IC50: > 80 µM (inactive)
[18]
  IC50: 8.92 µM (active)

## Cc1ccc(-c2nn(-c3ccccc3)cc2NC(=O)CCl)cc1
[19]
  IC50: > 7.18 µM (active)
[20]
  IC50: > 64.6 µM (inactive)

— ChEMBL document CHEMBL1201862, “PubChem BioAssay data set” (2004)
